Measurements as given in patent EP0158545A1, “[Alpha-(alkylaminomethyl)-benzylthio]-acetic-acid derivatives, process for their preparation and their therapeutic use” (priority 1984, dated 1985).
Entries after “also recorded” stand apart in the source; their conditions may differ.

Experiments:
[1] = tested on: souris; assay: Interaction with barbital (sleep duration), mouse; assay type: in vivo; settings: barbital 220 mg/kg I.P., plus forte dose utilisée (128 mg/kg)
[2] = tested on: souris; assay: Interaction with reserpine (hypothermia, ptosis), mouse; assay type: in vivo; settings: réserpine 2,5 mg/kg I.P.
Protocol: Quatre heures après l'injection intrapéritonéale de 2,5 mg/kg de réserpine, des lots de 12 souris reçoivent le CRL 41 190. On étudie l'influence du produit à tester sur l'hypothermie et le ptôsis réserpiniques.

[3] = tested on: souris; settings: I.P., plus forte dose utilisée (128 mg/kg)
[4] = tested on: l'homme; assay: Clinical treatment of depression, oral administration; assay type: in vivo
[5] = tested on: souris; assay: Intergroup aggressiveness, mouse; assay type: in vivo; settings: I.P., aux doses utilisées
Protocol: Après avoir séjourné pendant 3 semaines dans chacune des moitiés d'une cage séparées par une cloison opaque, des groupes de 3 souris reçoivent le CRL 41 190. Une demi-heure plus tard, les deux groupes d'une même cage sont réunis par retrait de la cloison et on note le nombre de combats qui surviennent en 10 minutes.

[6] = tested on: rat; assay: Interaction with apomorphine, rat; assay type: in vivo; settings: product I.P. 0,50 h before s.c. 0,5 mg/kg apomorphine
[7] = tested on: souris; assay: Global behaviour and reactivities, mouse; assay type: in vivo; settings: I.P.
Protocol: (§1) On a résumé ci-après les résultats des essais neuropsychopharmacologiques qui ont été entrepris avec les produits préférés selon l'invention, le CRL 41 190 (Ex 1) et le CRL 41 214 (Ex 3). Dans ce résumé, les deux produits à tester mis en solution dans de l'eau distillée ont été administrés, sauf indiction contraire, par voie intrapéritonéale sous un volume de 20 ml/kg chez la souris mâle et sous un volume de 5 ml/kg chez le rat mâle. […]
(§2) Des lots de trois animaux sont observés avant puis 0,25 h, 0,5, h, 1 h, 2 h, 3 h et 24 h après administration de CRL 41 190.

[8] = tested on: rats; assay: Interaction with amphetamine (stereotypies), rat; assay type: in vivo; settings: amphétamine 2 mg/kg I.P., doses de 4 mg/kg, 16 mg/kg et surtout 64 mg/kg
Protocol: L'amphétamine (2 mg/kg) est injectée par voie intrapéritonéale à des lots de 6 rats, une demi -heure après l'administration de CRL 41 190.

[9] = tested on: souris; assay: Spontaneous motility (actimeter), mouse; assay type: in vivo; settings: souris, I.P.; plus forte dose utilisée (128 mg/gk)
[10] = tested on: rat; assay: Global behaviour and reactivities, rat; assay type: in vivo; settings: I.P.
Protocol: as §1, §2

[11] = tested on: souris mâle; settings: in vivo
Protocol: as §1
La DL-0 (dose maximale non mortelle) du CRL 41 190 est supérieure à 128 mg/kg par voie I.P. chez la souris mâle, et la DL-30 est de l'ordre de 256 mg/kg.
Par voie I.P. chez la souris mâle, la DL-0 est supérieure à 256 mg/kg.

[12] = tested on: souris; assay: Four-plate test, traction and electroshock, mouse; assay type: in vivo
Protocol: Le test est pratiqué sur des lots de 10 souris 0,50 h après l'administration du produit à étudier.

[13] = tested on: souris; assay: Behavioural despair (forced immersion), mouse; assay type: in vivo; settings: I.P., doses de 32 et 128 mg/kg
Text: On note la durée totale d'immobilité entre la 2ème et la 6ème minutes suivant l'immersion.

[14] = tested on: souris; assay: Interaction with oxotremorine, mouse; assay type: in vivo; settings: oxotrémorine 0,5 mg/kg I.P.
[15] = tested on: souris; assay: Motility reduced by habituation to the enclosure, mouse; assay type: in vivo; settings: I.P., plus forte dose utilisée (128 mg/kg)
[16] = tested on: souris; assay: Interaction with apomorphine, mouse; assay type: in vivo
Protocol: • 1°) chez la souris • Des lots de 6 souris reçoivent le produit à étudier 0,50 h avant une injection sous-cutanée de 1 mg/kg ou 16 mg/kg d'apomorphine.

[17] = tested on: souris; assay: Asphyxic anoxia (gallamine triethiodide), mouse; assay type: in vivo; settings: product I.P. half an hour before triiodoéthylate de gallamine 32 mg/kg I.P.
[18] = tested on: chiens; assay: Influence on noradrenaline hypertension, dog; assay type: in vivo; settings: chien
Protocol: (§3) b) Sur les mêmes chiens on a étudié l'influence du produit vis à vis de l'isoprénaline et de la noradrénaline.
L'hyptertension à la noradrénaline (2 µg/kg I.V.) est augmentée par le CRL 41 252 ([…]), la pression artérielle systolique passe de 208 à 352 mmHg (soit environ de 2,77 x 10^4 à 4,7 x 10^4Pa) au lieu de 204 à 328 mmHg (soit environ de 2,71 à 4,3 x 10 Pa).

[19] = tested on: chiens; assay: Influence on isoprenaline effects, dog; assay type: in vivo; settings: chien, after dose cumulée 19,1 mg/kg I.D.
Text: as §3
Avec 10,pg/kg I.V. d'isoprénaline la pression artérielle diastolique du CRL 41 252 passe de 128 à […] ([…] à 6,4 x 10^3 Pa), […]

[20] = tested on: système nerveux central (SNC); assay: General statement of CNS (antidepressant, sedative) properties; assay type: in vivo
[21] = tested on: chiens; assay: Cardiovascular tests in dogs, intraduodenal successive doses; assay type: in vivo, chien
Protocol: a) Quatre chiens (poids moyen : 13,8 kg) anesthésiés au nembutal reçoivent le CRL 41 250 par voie intraduodénale, aux doses successives de 0,1 mg/kg, 0,5 mg/kg, 1 mg/kg, 2,5 mg/kg, 5 mg/kg puis 10 mg/kg. On mesure la pression artérielle, la fréquence cardiaque, le débit artériel fémoral, le débit artériel vertébral, la température rectale et on observe la coloration de la peau.
a) Deux chiens (poids moyen : 14,5 kg) reçoivent le CRL 41 252 par voie intraduodénale, aux doses successives de 0,1 mg/kg, 0,5 mg/kg, 1 mg/kg, 2,5 mg/kg, 5 mg/kg, 10 mg/kg et 20 mg/kg. On mesure la pression artérielle, la fréquence cardiaque, le débit artériel fémoral, le débit artériel vertébral, les températures rectale et cutanée et on observe la coloration de la peau.

[22] = tested on: chiens; assay: Influence on isoprenaline effects, dog; assay type: in vivo; settings: chien, isoprénaline 10 µg/kg I.V., dose cumulée de 19,1 mg/kg I.D.
[23] = dès la dose de 8 mg/kg, mais surtout aux doses de 32 mg/kg et 128 mg/kg
[24] = souris, 0,50 h after I.P. administration

## CC(C)(C)NCC(SCC(=O)NO)c1ccccc1 (racemic) [CRL 41 214, chlorhydratede l'acide [α-(tertiobutyl-aminométhyl)-benzyl]-thioacétohydroxamique]
[1]
  durée du sommeil barbiturique: diminue nettement la durée du sommeil barbiturique
[2]; doses 8 to 128 mg/kg
  ptôsis réserpinique: sans modifier le ptôsis
[2]; [23]
  hypothermie réserpinique: antagonise l'hypothermie réserpinique
[3]
  récupération motrice après anoxie hypobare aigue: semble entraîner une amélioration très modérée de la récupération motrice
[4]; administration orale, gélules ou comprimés 25 mg ou 50 mg, 1 à 2 prises par jour, deux à trois semaines
  traitement des dépressions chez l'homme: bons résultats
[4]; clinical, oral
  propriétés antidépressives chez les personnes agées: se manifestaient de façon très bénéfique chez les personnes agées
[5]
  nombre de combats: ne modifie pratiquement pas le nombre de combats
[6]
  stéréotypies induites par l'apomorphine: laisse inchangées les stéréotypies induites par l'apomorphine
[7]; dose de 128 mg/kg
  comportement global et réactivités: une mydriase modérée
[7]; doses de 2 à 32 mg/kg
  comportement global et réactivités: aucune modification nette du comportement et des réactivités
[8]
  stéréotypies amphétaminiques: potentialise nettement les stéréotypies amphétaminiques
[9]
  activité motrice spontanée: augmente nettement l'activité motrice spontanée de la souris
[10]; dose de 16 mg/kg
  comportement global et réactivités: une mydriase d'une durée de 2 h qui est maximale 0,5 h après administration
[10]; dose de 64 mg/kg
  comportement global et réactivités: une diminution de la fréquence respiratoire pendant 0,5 h et une mydriase d'une durée de 3 h qui est maximale 1 h après administration
[10]; doses de 1 et 4 mg/kg
  comportement global et réactivités: aucune modification nette du comportement, des réactivités, de la température rectale et du diamètre pupillaire par rapport au lot témoin
[11]
  signs observed at high doses: une sédation et une dyspnée
[11]; mouse, ip
  DL-0 (dose maximale non mortelle): > 256 mg/kg
[12]; [24]
  effets convulsivants de l'électrochoc: ne modifie pratiquement pas les effets convulsivants
  incapacité motrice (traction): ne provoque pas d'incapacité motrice majeure
  nombre de passages punis (test des quatre plaques): n'entraîne pas d'augmentation nette du nombre de passages punis
[12]; souris, I.P., dose de 128 mg/kg
  effets létaux de l'électrochoc: aggrave, à la dose de 128 mg/kg, les effets létaux de l'électrochoc
[13]
  durée de l'immobilité de la souris placée en immersion forcée: diminue très modérément la durée de l'immobilité de la souris placée en immersion forcée
[14]; all doses used
  signes de stimulation cholinergique périphérique dûs à l'oxotrémorine: ne modifie pratiquement pas les signes de stimulation cholinergique périphérique dûs à l'oxotrémorine
[14]; doses de 32 mg/kg et 128 mg/kg
  intensité des tremblements dus à l'oxotrémorine: diminue faiblement l'intensité des tremblements dus à l'oxotrémorine
[14]; [23]
  hypothermie induite par l'oxotrémorine: s'oppose à l'hypothermie induite par l'oxotrémorine
[15]
  reprise d'activité motrice chez la souris habituée à son enceinte: entraîne une reprise nette d'activité motrice chez la souris habituée à son enceinte
[16]; I.P., dès la dose de 2 mg/kg, mais surtout aux doses de 32 mg/kg à 128 mg/kg
  hypothermie induite par l'apomorphine: antagonise l'hypothermie induite par l'apomorphine
[16]; product I.P. 0,50 h before s.c. apomorphine
  comportements de verticalisation et stéréotypies (apomorphine): ne sont pratiquement pas modifiés
[17]
  délai d'apparition des convulsions et de la mort consécutives à une anoxie asphyxique: diminue très modérément le délai d'apparition des convulsions et de la mort

## CC(SC(CNC(C)(C)C)c1ccccc1)C(N)=O (stereo not drawn) [CRL 41 250, fumaratede 2-{[α-(tertiobutylaminomethyl)-benzyl]-thio}-propionamide]
[18]; after dose cumulée 19,1 mg/kg I.D., control 204
  pression artérielle systolique, before noradrénaline: 191 mmHg
[18]; noradrénaline 2 µg/kg I.V., after dose cumulée 19,1 mg/kg I.D., control 304
  pression artérielle systolique, after noradrénaline: 330 mmHg
[18]; noradrénaline 2 µg/kg I.V., dose cumulée de 19,1 mg/kg I.D.
  hypertension à la noradrénaline: légèrement augmentée
[19]; control 151
  pression artérielle diastolique, before isoprénaline: 148 mmHg
[19]; control 180
  fréquence cardiaque, before isoprénaline: 175 battements/minute
[19]; isoprénaline 10 µg/kg I.V., control 43
  pression artérielle diastolique, after isoprénaline: 47 mmHg
[19]; isoprénaline 10 µg/kg I.V., control 271
  fréquence cardiaque, after isoprénaline: 265 battements/minute
[20]
  propriétés antidépressives et sédatives: propriétés antidépressives et sédatives
[21]; chien anesthésié (nembutal), dose de 19,1 mg/kg I.D.
  débit fémoral: augmente le débit fémoral
[21]; chien anesthésié, dose de 1 mg/kg I.D.
  fréquence cardiaque: provoque une légère bradycardie
[21]; chien anesthésié, successive I.D. doses 0,1 to 10 mg/kg
  pression artérielle: aucun effet sur la pression artérielle
[21]; general statement
  effets vasodilatateurs (propriétés cardiovasculaires): effets vasodilatateurs intéressants; also recorded: effets vasodilatateurs bénéfiques
[22]
  effect on isoprénaline response (pression artérielle diastolique, fréquence cardiaque): ne modifie pas la pression artérielle diastolique ni la fréquence cardiaque
